Test results: the supplement of paper PMC4862054

Key:
CAL-148 = settings: 72 h
Summary of the method: (§1)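 EC50 is the value from a fitted percent-inhibition dose-response curve, censored at the highest concentration, and rows with zero drug sensitivity score were not kept. The underlying assay seeded breast cancer cell lines in 20 µl onto 384-well plates pre-loaded with compound in 5 µl medium for 72 h. Viability was then read by CellTiter-Blue fluorescence at 560/590 nm after 2 h at 37 °C, with each plate normalised to vehicle and a positive kill control.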

CAL-51 = settings: 72 h
Summary of the method: as §1

CAL-120 [1] = test: drug sensitivity score (DSS), CellTiter-Blue viability (DSS (AUC-based score)); higher = stronger viability inhibition; extreme values may be limits of the assay; settings: incubation time: 72 h
Protocol: (§2)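 DSRT with the CellTiter-Blue (resazurin reduction) viability readout, fluorescence 560/590 nm, 72 h incubation. Plates were normalised to DMSO and benzethonium chloride controls. DSS is computed from the area under the fitted dose-response curve (5 or 9 concentrations).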

HCC1599 = test: as above; settings: incubation time: 72 h
Protocol: as §2

Hs578T = test: as above; settings: incubation time: 72 h
Protocol: as §2

MDA-MB-231 = test: as above; settings: incubation time: 72 h
Protocol: as §2

MDA-MB-468 = settings: 72 h
Summary of the method: (§3)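 A 20 µl suspension of breast cancer cells was placed in 384-well plates that already contained compound at 5 concentrations in 10-fold steps across a compound-specific 10,000-fold range, and the plates were left for 72 h. CellTox Green fluorescence at 485/520 nm gave cell death, and CellTiter-Glo luminescence, read after 10 min at room temperature, gave viability. Each plate was normalised to 0.1 % DMSO and a positive kill control. EC50 was fitted from the curves and censored at the top concentration.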

CAL-120 [2] = settings: 72 h
Summary of the method: as §3

Nc1nc(Cl)nc2c1ncn2[C@H]1C[C@H](O)[C@@H](CO)O1 [Cladribine]
EC50, CellTiter-Blue viability (CAL-148): > 1000 nM | EC50, CellTiter-Blue viability (CAL-51): > 1000 nM | drug sensitivity score (CAL-120 [1]): 3.94 | drug sensitivity score (HCC1599): 0 | drug sensitivity score (Hs578T): 0 | drug sensitivity score (MDA-MB-231): 7.23 | EC50, CellTiter-Glo (MDA-MB-468): > 1000 nM | EC50, CellTiter-Glo (CAL-120 [2]): 445 nM

C=CC[C@@H]1/C=C(\C)C[C@H](C)C[C@H](OC)[C@H]2O[C@@](O)(C(=O)C(=O)N3CCCC[C@H]3C(=O)O[C@H](/C(C)=C/[C@@H]3CC[C@@H](O)[C@H](OC)C3)[C@H](C)[C@@H](O)CC1=O)[C@H](C)C[C@@H]2OC [Tacrolimus]
drug sensitivity score (CAL-120 [1]): 0 | drug sensitivity score (HCC1599): 0 | drug sensitivity score (Hs578T): 0 | drug sensitivity score (MDA-MB-231): 0

CS(=O)(=O)c1ccc(C(=O)Nc2ccc(Cl)c(-c3ccccn3)c2)c(Cl)c1 [Vismodegib]
drug sensitivity score (CAL-120 [1]): 0 | drug sensitivity score (HCC1599): 0 | drug sensitivity score (Hs578T): 0 | drug sensitivity score (MDA-MB-231): 0

COc1cccc2cc(-c3nc([C@H]4CC[C@H](C(=O)O)CC4)n4ncnc(N)c34)[nH]c12 [OSI-027]
EC50, CellTiter-Blue viability (CAL-148): 1640 nM | EC50, CellTiter-Blue viability (CAL-51): 1580 nM | drug sensitivity score (CAL-120 [1]): 8.32 | drug sensitivity score (HCC1599): 5.99 | drug sensitivity score (Hs578T): 9.33 | drug sensitivity score (MDA-MB-231): 6.73 | EC50, CellTiter-Glo (MDA-MB-468): 4990 nM | EC50, CellTiter-Glo (CAL-120 [2]): 3850 nM

N#CC[C@H](C1CCCC1)n1cc(-c2ncnc3[nH]ccc23)cn1 [Ruxolitinib]
drug sensitivity score (CAL-120 [1]): 0 | drug sensitivity score (HCC1599): 0 | drug sensitivity score (Hs578T): 0 | drug sensitivity score (MDA-MB-231): 0 | EC50, CellTiter-Glo (MDA-MB-468): > 10000 nM | EC50, CellTiter-Glo (CAL-120 [2]): 1670 nM

CN1CC[C@H](c2c(O)cc(O)c3c(=O)cc(-c4ccccc4Cl)oc23)[C@H](O)C1 [Alvocidib]
EC50, CellTiter-Blue viability (CAL-148): 125 nM | EC50, CellTiter-Blue viability (CAL-51): 185 nM | drug sensitivity score (CAL-120 [1]): 17.8 | drug sensitivity score (HCC1599): 17.4 | drug sensitivity score (Hs578T): 22.8 | drug sensitivity score (MDA-MB-231): 19.6 | EC50, CellTiter-Glo (MDA-MB-468): 261 nM | EC50, CellTiter-Glo (CAL-120 [2]): 167 nM

CN1CCC(COc2cnc(-c3cccc(Cn4nc(-c5cccc(C#N)c5)ccc4=O)c3)nc2)CC1
EC50, CellTiter-Blue viability (CAL-148): 5800 nM | EC50, CellTiter-Blue viability (CAL-51): 4990 nM | drug sensitivity score (CAL-120 [1]): 3.44 | drug sensitivity score (HCC1599): 0 | drug sensitivity score (Hs578T): 0 | drug sensitivity score (MDA-MB-231): 5.87

S=c1[nH]cnc2nc[nH]c12 [Mercaptopurine]
EC50, CellTiter-Blue viability (CAL-51): 3810 nM | drug sensitivity score (CAL-120 [1]): 4.1 | drug sensitivity score (HCC1599): 0 | drug sensitivity score (Hs578T): 0 | drug sensitivity score (MDA-MB-231): 0 | EC50, CellTiter-Glo (CAL-120 [2]): 4710 nM

COc1cccc2c1C(=O)c1c(O)c3c(c(O)c1C2=O)C[C@@](O)(C(=O)CO)C[C@@H]3O[C@H]1C[C@H](N)[C@H](O)[C@H](C)O1 [Doxorubicin]
EC50, CellTiter-Blue viability (CAL-148): 53.3 nM | EC50, CellTiter-Blue viability (CAL-51): 164 nM | drug sensitivity score (CAL-120 [1]): 11.3 | drug sensitivity score (HCC1599): 3.59 | drug sensitivity score (Hs578T): 9.11 | drug sensitivity score (MDA-MB-231): 9.57 | EC50, CellTiter-Glo (MDA-MB-468): 139 nM | EC50, CellTiter-Glo (CAL-120 [2]): 872 nM

CN(C)C/C=C/C(=O)Nc1cc2c(Nc3ccc(F)c(Cl)c3)ncnc2cc1O[C@H]1CCOC1 [Afatinib]
EC50, CellTiter-Blue viability (CAL-148): 65 nM | EC50, CellTiter-Blue viability (CAL-51): 4750 nM | drug sensitivity score (CAL-120 [1]): 4.96 | drug sensitivity score (HCC1599): 0 | drug sensitivity score (Hs578T): 4.14 | drug sensitivity score (MDA-MB-231): 7.75 | EC50, CellTiter-Glo (MDA-MB-468): 158 nM

CO[C@H]1C[C@@H]2CC[C@@H](C)[C@@](O)(O2)C(=O)C(=O)N2CCCC[C@H]2C(=O)O[C@H]([C@H](C)C[C@@H]2CC[C@@H](OC(=O)C(C)(CO)CO)[C@H](OC)C2)CC(=O)[C@H](C)/C=C(\C)[C@@H](O)[C@@H](OC)C(=O)[C@H](C)C[C@H](C)/C=C/C=C/C=C/1C [Temsirolimus]
EC50, CellTiter-Blue viability (CAL-148): 0.47 nM | EC50, CellTiter-Blue viability (CAL-51): 1.36 nM | drug sensitivity score (CAL-120 [1]): 16.4 | drug sensitivity score (HCC1599): 0 | drug sensitivity score (Hs578T): 17.3 | drug sensitivity score (MDA-MB-231): 0 | EC50, CellTiter-Glo (MDA-MB-468): 0.15 nM | EC50, CellTiter-Glo (CAL-120 [2]): 1.08 nM

Nc1ccn([C@@H]2O[C@H](CO)[C@@H](O)[C@@H]2O)c(=O)n1 [Cytarabine]
EC50, CellTiter-Blue viability (CAL-148): 32.3 nM | EC50, CellTiter-Blue viability (CAL-51): 266 nM | drug sensitivity score (CAL-120 [1]): 7.69 | drug sensitivity score (HCC1599): 3 | drug sensitivity score (Hs578T): 11.6 | drug sensitivity score (MDA-MB-231): 7.18 | EC50, CellTiter-Glo (MDA-MB-468): 618 nM | EC50, CellTiter-Glo (CAL-120 [2]): > 10000 nM

COc1cc(Nc2ncc3c(n2)-c2ccc(Cl)cc2C(c2c(F)cccc2OC)=NC3)ccc1C(=O)O [Alisertib]
EC50, CellTiter-Glo (MDA-MB-468): 26.9 nM | EC50, CellTiter-Glo (CAL-120 [2]): 338 nM

Cc1ccc(F)c(NC(=O)Nc2ccc(-c3cccc4[nH]nc(N)c34)cc2)c1 [Linifanib]
drug sensitivity score (CAL-120 [1]): 0 | drug sensitivity score (HCC1599): 0 | drug sensitivity score (Hs578T): 0 | drug sensitivity score (MDA-MB-231): 0

CCN1CCN(c2ccc(Nc3cc(N(C)C(=O)Nc4c(Cl)c(OC)cc(OC)c4Cl)ncn3)cc2)CC1 [NVP-BGJ398]
EC50, CellTiter-Glo (CAL-120 [2]): 252 nM

C=CCNC1=C2C[C@@H](C)C[C@H](OC)[C@H](O)[C@@H](C)/C=C(\C)[C@H](OC(N)=O)[C@@H](OC)/C=C\C=C(/C)C(=O)NC(=CC1=O)C2=O [Tanespimycin]
EC50, CellTiter-Blue viability (CAL-148): 65.9 nM | EC50, CellTiter-Blue viability (CAL-51): 269 nM | drug sensitivity score (CAL-120 [1]): 14.8 | drug sensitivity score (HCC1599): 16.3 | drug sensitivity score (Hs578T): 20.5 | drug sensitivity score (MDA-MB-231): 9.87 | EC50, CellTiter-Glo (MDA-MB-468): 532 nM | EC50, CellTiter-Glo (CAL-120 [2]): 269 nM

CC[C@]1(O)C[C@@H]2CN(CCc3c([nH]c4ccccc34)[C@@](C(=O)OC)(c3cc4c(cc3OC)N(C)[C@H]3[C@@](O)(C(=O)OC)[C@H](OC(C)=O)[C@]5(CC)C=CCN6CC[C@]43[C@@H]65)C2)C1 [Vinblastine]
EC50, CellTiter-Blue viability (CAL-148): 13.2 nM | EC50, CellTiter-Blue viability (CAL-51): 26.5 nM | drug sensitivity score (CAL-120 [1]): 32 | drug sensitivity score (HCC1599): 7.99 | drug sensitivity score (Hs578T): 30.7 | drug sensitivity score (MDA-MB-231): 27.7 | EC50, CellTiter-Glo (MDA-MB-468): 2.95 nM | EC50, CellTiter-Glo (CAL-120 [2]): 2.04 nM

Cc1c2oc3c(C)ccc(C(=O)N[C@@H]4C(=O)N[C@H](C(C)C)C(=O)N5CCC[C@H]5C(=O)N(C)CC(=O)N(C)[C@@H](C(C)C)C(=O)O[C@@H]4C)c3nc-2c(C(=O)N[C@@H]2C(=O)N[C@H](C(C)C)C(=O)N3CCC[C@H]3C(=O)N(C)CC(=O)N(C)[C@@H](C(C)C)C(=O)O[C@@H]2C)c(N)c1=O [Dactinomycin]
EC50, CellTiter-Blue viability (CAL-148): 0.76 nM | EC50, CellTiter-Blue viability (CAL-51): 2.72 nM | drug sensitivity score (CAL-120 [1]): 30.8 | drug sensitivity score (HCC1599): 20.8 | drug sensitivity score (Hs578T): 33.6 | drug sensitivity score (MDA-MB-231): 30.8 | EC50, CellTiter-Glo (MDA-MB-468): 1.54 nM | EC50, CellTiter-Glo (CAL-120 [2]): 10.2 nM

C[C@]1(c2nc3c(C(N)=O)cccc3[nH]2)CCCN1 [Veliparib]
drug sensitivity score (CAL-120 [1]): 0 | drug sensitivity score (HCC1599): 0 | drug sensitivity score (Hs578T): 0 | drug sensitivity score (MDA-MB-231): 0

OC[C@H]1O[C@@H](n2cnc3c2N=CNC[C@H]3O)C[C@@H]1O [Pentostatin]
drug sensitivity score (CAL-120 [1]): 0 | drug sensitivity score (HCC1599): 0 | drug sensitivity score (Hs578T): 0 | drug sensitivity score (MDA-MB-231): 0

Clc1ccc(C(c2ccccc2Cl)C(Cl)Cl)cc1 (stereo not given) [Mitotane]
drug sensitivity score (CAL-120 [1]): 0 | drug sensitivity score (HCC1599): 0 | drug sensitivity score (Hs578T): 0 | drug sensitivity score (MDA-MB-231): 0

COc1cc(Nc2ncc3c(n2)-c2ccc(Cl)cc2C(c2c(F)cccc2OC)=NC3)ccc1C(=O)O [MLN8237]
EC50, CellTiter-Blue viability (CAL-148): 184 nM | EC50, CellTiter-Blue viability (CAL-51): 111 nM | drug sensitivity score (CAL-120 [1]): 10.7 | drug sensitivity score (HCC1599): 2.39 | drug sensitivity score (Hs578T): 14.7 | drug sensitivity score (MDA-MB-231): 10.4
